Test: 2AET storage stability at 40° C. in different packages
Format: physicochemical
Procedure: The single phase depilatory was then packaged into two separate containers. The first was an aluminum can with a bag-on-valve system, while the second was a standard high density polyethylene bottle.
The 2AET levels were evaluated at initial, 1 month and 3 months after storage at 40° C. to determine stability profiles.

- 2AET level (Example 13 single phase depilatory in HDPE (full), 1 month/40° C.): 6.7%
- 2AET level (Example 13 single phase depilatory in HDPE (full), 3 months/40° C.): 6.6%
- 2AET level (Example 13 single phase depilatory in HDPE (full), initial): 7.2%
- 2AET level (Example 13 single phase depilatory in HDPE (half), 1 month/40° C.): 6.3%
- 2AET level (Example 13 single phase depilatory in HDPE (half), 3 months/40° C.): 5.9%
- 2AET level (Example 13 single phase depilatory in HDPE (half), initial): 7.1%
- 2AET level (Example 13 single phase depilatory in aluminum can with bag-on-valve, 1 month/40° C.): 7.3%
- 2AET level (Example 13 single phase depilatory in aluminum can with bag-on-valve, 3 months/40° C.): 7.3%
- 2AET level (Example 13 single phase depilatory in aluminum can with bag-on-valve, initial): 7.3%
SMILES: NCCS [Example 2AET, 2-aminoethanethiol]
